Tests used:
[1] = Induction of […] generation assessed as bleaching rate of ABDA under white light irradiation relative to control; assay type: functional
HeLa = test: Photodynamic activity in human HeLa cells assessed as light dose required to kill 50% of cells by fluorescein diacetate and propidium iodide dye based fluorescence assay; assay type: functional

Row | Structure (SMILES) | Activity [1] [%] | Activity (HeLa) [kJ/cm2]
1 | C=Cc1c(C)c2cc3nc(c(CC(=O)O)c4[nH]c(cc5nc(cc1[nH]2)C(C)=C5CC)c(C)c4C(=O)O)C(CCC(=O)O)C3C (centres undefined) | 16.7 | –
2 | O=C(O)c1c(Cl)c(Cl)c(Cl)c(Cl)c1-c1c2cc(I)c(=O)c(I)c-2oc2c(I)c(O)c(I)cc12 | 55.6 | –
3 | Cc1ccc(N(c2ccc(C)cc2)c2ccc(-c3ccc(/C=C/c4cc[n+](C)cc4)s3)cc2)cc1 | 90.7 | –
4 | CCC[n+]1cc2ccc(-c3ccc(N(c4ccccc4)c4ccccc4)cc3)cc2c(-c2ccccc2)c1-c1ccccc1.F[B-](F)(F)F | – | 3.7

Reference: ChEMBL document CHEMBL4354851, “Aggregation-Induced Emission Photosensitizers: From Molecular Design to Photodynamic Therapy” (2020)
